Measured values published in patent publication US20020090352A1, “Compositions and methods for use in modulating immune system function” (priority 2000, published 2002).
Entries after “also recorded” stand apart in the source; their conditions may differ. Marks after values point to notes of the source that are not given here. Peptide text beside a SMILES is read from it. * marks the point of attachment. Cbz = O=C(OCc1ccccc1)*; CH2F = FC*

Columns and labels:
[1] = test system: immature LC (Langerhans cells); experiment: Apoptosis of immature LC, flow cytometry of PI stained nuclei (sub 2N particles) / annexin V; assay type: cell-based, human; conditions: for induction of apoptosis / death of immature LC by the substance on its own: no TNFα
[2] = test system: immature LC (Langerhans cells); experiment: Activation of immature LC: HLA-DR and CD86 expression by flow cytometry; assay type: cell-based, human; set-up: class II or CD86 upregulation on immature LC: dose or concentration left out as unconfirmed; conditions: for activation of immature LC (class II / CD86, DRhi-CD86hi) in the presence of TNFα: TNFα 1-10 ng/ml
Method: Immature LC were cultured with retinol or vehicle and/or TNFα for 40 h. Cells were washed and incubated with HLA-DR-FITC and CD86-PE or isotype controls for 15 min at 4° C. 10^4 events were then analyzed with a FACScalibur (Becton Dickinson) using CellQuest software (Becton Dickinson). % are given for DRhi CD86hi cells gated as indicated. Data are representative of three experiments on different donors.
FIG. 3A: Day 6 immature LC were cultured for 40 h with TNFα and/or retinoids or vehicle as indicated. Cells were washed and stained with HLA-DR-FITC and CD86-PE or isotype controls for 15 min at 4° C. 10^4 events were then analyzed with a FACScalibur (Becton Dickinson) using CellQuest software (Becton Dickinson). Data are given for DRhi/CD86 hi cells gated as indicated, and are representative of 10 experiments on different donors.
Percentages of DRhi/CD86 hi cells are represented and results are expressed as the mean±SD of at last three experiments on different donors.
Flow Cytometry Analysis. 1×10^5 cells were incubated in 96-well plates (Becton Dickinson Labware, Franklin Lakes, N.J.) for 15 min at 4 ° C. in PBS, 2% human AB serum, and 0.01 M NaN3, with FITC-conjugated anti-DR (Immunotech, Marseille, France) and PE-conjugated CD86 (Pharmingen, San Diego, Calif.) at the appropriate concentration, or with control isotype-matched irrelevant mAbs at the same concentration. After washing, 10^4 events were analyzed with a FACScalibur (Becton Dickinson Immunocytometry Systems, Mountain View, Calif.) using CellQuest software.

T-cells stimulated by LC = assay type: cell-based, human
in vitro = conditions: human
NF-κB complexes = experiment: Electrophoretic mobility shift assay of nuclear NF-κB complexes in immature LC; assay type: cell-based, human; conditions: retinoid 1 μM 6 h, then TNFα 50 ng/ml 30 min; result in words
RARα AF2 = target: T1, RARα AF2 (Homo sapiens, UniProt P10276); conditions: retinoid activity, reporter cells; cited from earlier work; also: key: '+' = agonist; '(+)' = weak agonist; '−' = antagonist; '0' = absence of agonist and antagonist activities
T1 construct: expressed in transfected cells
T1 sequence (P10276 183-417 limits assumed): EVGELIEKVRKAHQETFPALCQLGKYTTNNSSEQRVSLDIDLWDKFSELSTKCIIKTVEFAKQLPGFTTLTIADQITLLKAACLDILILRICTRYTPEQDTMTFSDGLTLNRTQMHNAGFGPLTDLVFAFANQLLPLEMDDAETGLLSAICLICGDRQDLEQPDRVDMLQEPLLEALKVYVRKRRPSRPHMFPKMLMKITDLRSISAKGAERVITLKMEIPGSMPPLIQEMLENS

RARβ AF2 = target: T2, RARβ AF2 (Homo sapiens, UniProt P10826); conditions: retinoid activity, reporter cells; cited from earlier work; also: key: '+' = agonist; '(+)' = weak agonist; '−' = antagonist; '0' = absence of agonist and antagonist activities
T2 construct: expressed in transfected cells
T2 sequence (P10826 183-417 limits assumed): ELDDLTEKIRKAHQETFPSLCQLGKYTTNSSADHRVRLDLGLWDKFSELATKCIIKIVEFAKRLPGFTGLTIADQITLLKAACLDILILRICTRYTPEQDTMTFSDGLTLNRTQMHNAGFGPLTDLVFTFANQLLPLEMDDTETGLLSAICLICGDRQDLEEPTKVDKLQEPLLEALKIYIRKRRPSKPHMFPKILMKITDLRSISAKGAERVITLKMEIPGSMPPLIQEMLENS

RARγ AF2 = target: T3, RARγ AF2 (Homo sapiens, UniProt P13631); conditions: retinoid activity, reporter cells; cited from earlier work; also: key: '+' = agonist; '(+)' = weak agonist; '−' = antagonist; '0' = absence of agonist and antagonist activities
T3 construct: expressed in transfected cells
T3 sequence (P13631 185-419 limits assumed): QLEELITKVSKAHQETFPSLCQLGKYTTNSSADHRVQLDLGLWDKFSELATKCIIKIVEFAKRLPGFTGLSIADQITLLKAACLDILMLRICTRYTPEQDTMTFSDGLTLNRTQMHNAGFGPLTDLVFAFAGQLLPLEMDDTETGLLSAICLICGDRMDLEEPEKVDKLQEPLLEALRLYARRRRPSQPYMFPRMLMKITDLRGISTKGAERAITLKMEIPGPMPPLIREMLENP

RXR AF2 = conditions: retinoid activity, reporter cells; cited from earlier work
RXRα homodimer [(RXR)2] = target: T4, RXRα homodimer [(RXR)2] (Homo sapiens, UniProt P19793); conditions: retinoid activity, transient transfection; cited from earlier work; also: key: '+' = agonist; '(+)' = weak agonist; '−' = antagonist; '0' = absence of agonist and antagonist activities
T4 construct: expressed in transfected cells
T4 sequence (P19793 1-462): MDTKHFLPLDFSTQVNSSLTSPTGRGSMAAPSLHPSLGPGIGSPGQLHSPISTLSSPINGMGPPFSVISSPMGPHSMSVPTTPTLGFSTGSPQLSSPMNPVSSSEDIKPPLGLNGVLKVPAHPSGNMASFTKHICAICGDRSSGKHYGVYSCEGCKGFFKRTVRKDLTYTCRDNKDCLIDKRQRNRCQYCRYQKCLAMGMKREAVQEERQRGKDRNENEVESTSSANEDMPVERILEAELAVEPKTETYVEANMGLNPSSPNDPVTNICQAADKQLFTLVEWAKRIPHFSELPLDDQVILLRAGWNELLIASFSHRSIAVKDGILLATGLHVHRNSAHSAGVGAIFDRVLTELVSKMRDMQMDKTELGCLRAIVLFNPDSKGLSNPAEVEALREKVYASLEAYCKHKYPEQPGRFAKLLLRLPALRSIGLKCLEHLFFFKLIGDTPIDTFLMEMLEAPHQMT

RARα-RXRα heterodimer = target: T5, RARα-RXRα heterodimer (Homo sapiens, UniProt P10276+P19793); conditions: retinoid activity, transient transfection; cited from earlier work
T5 construct: expressed in transfected cells
T5 sequence (P10276 1-462): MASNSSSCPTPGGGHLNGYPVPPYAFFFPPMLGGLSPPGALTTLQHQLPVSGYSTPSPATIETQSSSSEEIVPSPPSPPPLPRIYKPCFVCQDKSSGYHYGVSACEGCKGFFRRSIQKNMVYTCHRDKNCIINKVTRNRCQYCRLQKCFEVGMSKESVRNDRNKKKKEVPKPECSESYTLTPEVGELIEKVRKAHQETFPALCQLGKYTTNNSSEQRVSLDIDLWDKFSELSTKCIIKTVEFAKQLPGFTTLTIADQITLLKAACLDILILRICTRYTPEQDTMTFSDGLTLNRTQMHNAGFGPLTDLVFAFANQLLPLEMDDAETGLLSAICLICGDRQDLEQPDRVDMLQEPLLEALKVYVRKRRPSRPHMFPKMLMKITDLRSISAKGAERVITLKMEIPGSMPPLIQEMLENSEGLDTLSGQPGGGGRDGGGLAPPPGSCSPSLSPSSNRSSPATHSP
T5 sequence (P19793 1-462): T4 sequence (P19793 1-462)

[3] = test system: immature LC (Langerhans cells); experiment: Survival of immature LC, viable cell count with trypan blue exclusion; conditions: 1000 nM tRA; Compound II 1000 nM, Z-Vad-fmk 50 nM
[4] = 1 nM, two days in culture, mean ± SD
[5] = 10 nM, two days in culture, mean ± SD
[6] = 100 nM, two days in culture, mean ± SD
[7] = 1 μM, two days in culture, mean ± SD

CC1=C(/C=C/C(C)=C/C=C/C(C)=C/CO)C(C)(C)CCC1 [Rol, retinol]
percentage of apoptotic (<2N) particles [1, 4]: ≦5^(a) % | percentage of apoptotic (<2N) particles [1, 5]: ≦5% | percentage of apoptotic (<2N) particles [1, 6]: ≦5% | percentage of apoptotic (<2N) particles [1, 7]: 17±8% | percentage of apoptotic (<2N) particles ([1]; Table 3C, retinoid 1 μM in medium, no inhibitor): 17 ± 8% | induction of apoptosis / death of immature LC by the substance on its own ([1]; result in words): increased | minimum effective dose for significant LC activation [2]: 1 µM | synergy with IL-1β to activate LC ([2]; IL-1β 1-10 ng/ml, result in words): synergized with IL-1β | activation of immature LC (class II / CD86, DRhi-CD86hi) in the presence of TNFα ([2]; result in words, listed as Retinol): synergize with TNFα; also recorded: upregulate | activation of immature LC (class II / CD86, DRhi-CD86hi) in the presence of TNFα ([2]; result in words, listed as retinol): synergized with TNFα | class II or CD86 upregulation on immature LC ([2]; in the absence or at low concentrations of TNFα): did not significantly induce | allogeneic T-lymphocyte proliferation (MLR) (T-cells stimulated by LC): increase alloreactive proliferative response | cytotoxicity at 2 days, 1 μM (in vitro): 20% | cytotoxicity at 3 days, 1 μM (in vitro): 40%

CC1(C)CCC(C)(C)c2cc(C3(c4ccc(C(=O)O)cc4)OCCO3)ccc21 [SR11237, 4-[2-(5,6,7,8-tetrahydro-5,5,8,8-tetramethyl-2-naphthalenyl)-1,3-dioxolan-2-yl]benzoic acid, reference compound]
percentage of apoptotic (<2N) particles [1, 4]: ≦5% | percentage of apoptotic (<2N) particles [1, 5]: ≦5% | percentage of apoptotic (<2N) particles [1, 6]: ≦5% | percentage of apoptotic (<2N) particles [1, 7]: ≦5% | induction of apoptosis / death of immature LC by the substance on its own ([1]; result in words): neither SR11237 (Table 3) nor BMS749 exhibited an apoptotic effect | induction of apoptosis / death of immature LC by the substance on its own ([1]; result in words, listed as SR1 1237): had no effects on its own | synergy with the pan-RXR agonist SR11237 to induce LC death ([1]; result in words): asynergistic effect on LC death induced by the selective RARα agonist | activation of immature LC (class II / CD86, DRhi-CD86hi) in the presence of TNFα ([2]; result in words): also synergized with TNFα; also recorded: upregulate | enhancement of antigen presentation to antigen-specific T-cells in synergy with TNFα (T-cells stimulated by LC): synergized with TNFα | nuclear translocation / DNA-binding activity of NF-κB complexes with TNFα (NF-κB complexes): synergize with TNFα | RARα AF2 (RARα AF2): 0 | RARβ AF2 (RARβ AF2): 0 | RARγ AF2 (RARγ AF2): 0 | RXR AF2 (RXR AF2): + | (RXR)2 AF2 (RXRα homodimer [(RXR)2]): + | RARα-RXR DR5 (RARα-RXRα heterodimer): 0

COC(=O)C[C@H](NC(=O)[C@H](C)NC(=O)[C@@H](NC(=O)OCc1ccccc1)C(C)C)C(=O)CF [Z-Vad-fmk, reference compound] (Cbz-Val-Ala-Asp(OMe)-CH2F)
percentage of apoptotic (<2N) particles ([1]; agent + Cmpd. I 1 μM, Cmpd. II 1 μM, Cmpd. VIII 1 μM, Z-Vad 50 μM, TNFα 10 ng/ml, CD40L coculture): 9 ± 7% | percentage of apoptotic (<2N) particles ([1]; agent + Compound I 100 nM + SR11237 100 nM, Cmpd. II 1 μM, Cmpd. VIII 1 μM, Z-Vad 50 μM, TNFα 10 ng/ml, CD40L coculture): 11 ± 4% | percentage of apoptotic (<2N) particles ([1]; agent + tRA 1 μM, Cmpd. II 1 μM, Cmpd. VIII 1 μM, Z-Vad 50 μM, TNFα 10 ng/ml, CD40L coculture): 9 ± 4% | percentage of apoptotic (<2N) particles ([1]; agent alone (column 0), Cmpd. II 1 μM, Cmpd. VIII 1 μM, Z-Vad 50 μM, TNFα 10 ng/ml, CD40L coculture): ≦5% | inhibition of retinoid-induced apoptosis / cell death of immature LC ([1]; result in words): blocked | inhibition of tRA mortality [3]: > 80%
